Assay results as given in PMC12655637, “Design, Synthesis, and Mechanistic Study of Novel Ciprofloxacin/Thiazole Chalcone Hybrids as Potential Anticancer Agents” (Pharmaceuticals, 2025).

Columns and labels:
Experiment in all cases: NCI-60 screening, one-dose (10 µM) and five-dose, SRB
HCC-2998 = type: cell-based, human
MALME-3M = type: cell-based, human
K-562 = type: cell-based, human; conditions: five-dose, K-562
COLO 205 = type: cell-based, human
PC-3 = type: cell-based, human
HCT-116 = type: cell-based, human; conditions: Homo sapiens
A498 = type: cell-based
MCF7 = type: cell-based, human
OVCAR-4 = type: cell-based, human
SK-MEL-5 = type: cell-based, human
RXF 393 = type: cell-based; conditions: Homo sapiens; 10 μM; RXF 393, Renal Cancer; read-out: Growth percentage
M14 = type: cell-based, human
SNB-75 = type: cell-based, human
RPMI-8226 = type: cell-based, human; conditions: RPMI-8226
SF-295 = type: cell-based, human
NCI-H322M = type: cell-based, human
[1] = Homo sapiens, five-dose, HCC-2998
[2] = Homo sapiens, five-dose, read-out: LC50 (the source's name)
[3] = Homo sapiens, five-dose, COLO 205
[4] = Homo sapiens, five-dose, OVCAR-4
[5] = Homo sapiens, five-dose, SK-MEL-5
[6] = Homo sapiens, five-dose, SNB-75
[7] = Homo sapiens, five-dose, SF-295

Cc1nc(SCC(=O)N2CCN(c3cc4c(cc3F)c(=O)c(C(=O)O)cn4C3CC3)CC2)sc1C(=O)/C=C/c1cccc(Cl)c1 [Compound 4b, (E)-7-(4-(2-((5-(3-(3-Chlorophenyl)acryloyl)-4-methylthiazol-2-yl)thio)acetyl)piperazin-1-yl)-1-cyclopropyl-6-fluoro-4-oxo-1,4-dihydroquinoline-3-carboxylic Acid]
activity at 10 µM (HCC-2998; Homo sapiens, 10 μM, HCC-2998, Colon Cancer, read-out: Growth percentage): 25.6%
GI50 (HCC-2998; [1]): 1.2 µM
IC50 (HCC-2998; [1]): 2.2 µM
TGI (HCC-2998; five-dose, HCC-2998): 2.9 µM
Growth percentage (MALME-3M; 10 μM, Melanoma): 143.6%
GI50 (MALME-3M; Homo sapiens, five-dose): > 100 µM
IC50 (MALME-3M; Homo sapiens, five-dose): > 100 µM
CC50 (MALME-3M; [2]): > 100 µM
TGI (MALME-3M; five-dose): 100.0 µM
GI50 (K-562; Homo sapiens, K562): 4.2 µM
IC50 (K-562; Homo sapiens, K562): 4.9 µM
CC50 (K-562; Homo sapiens, K562, read-out: LC50 (the source's name)): > 100 µM
TGI (K-562): 100.0 µM
activity at 10 µM (COLO 205; Homo sapiens, 10 μM, COLO 205, Colon Cancer, read-out: Growth percentage): 114%
GI50 (COLO 205; [3]): 4.3 µM
IC50 (COLO 205; [3]): 6.2 µM
CC50 (COLO 205; Homo sapiens, five-dose, COLO 205, read-out: LC50 (the source's name)): > 100 µM
TGI (COLO 205; five-dose, COLO 205): 100.0 µM
activity at 10 µM (PC-3; Homo sapiens, 10 μM, PC-3, Prostate Cancer, read-out: Growth percentage): 74.1%
GI50 (PC-3; Homo sapiens, five-dose, PC-3): 55 µM
IC50 (PC-3; Homo sapiens, five-dose, PC-3): > 100 µM
CC50 (PC-3; Homo sapiens, five-dose, PC-3, read-out: LC50 (the source's name)): > 100 µM
TGI (PC-3; five-dose, PC-3): 100.0 µM
activity at 10 µM (HCT-116; HCT-116, 10 μM, HCT-116, Colon Cancer, read-out: Growth percentage): 2.8%
GI50 (HCT-116; five-dose, HCT-116): 0.2 µM
IC50 (HCT-116; five-dose, HCT-116): 0.3 µM
activity at 10 µM (A498; Homo sapiens, A498, 10 μM, A498, Renal Cancer, read-out: Growth percentage): 36%
GI50 (A498; Homo sapiens, five-dose, A498): > 100 µM
IC50 (A498; Homo sapiens, five-dose, A498): > 100 µM
CC50 (A498; Homo sapiens, five-dose, A498, read-out: LC50 (the source's name)): > 100 µM
TGI (A498; five-dose, A498): 100.0 µM
activity at 10 µM (MCF7; Homo sapiens, MCF7, 10 μM, MCF7, Breast Cancer, read-out: Growth percentage): 6.5%
GI50 (MCF7; Homo sapiens, five-dose, MCF7): 0.4 µM
IC50 (MCF7; Homo sapiens, five-dose, MCF7): 0.6 µM
CC50 (MCF7; Homo sapiens, five-dose, MCF7, read-out: LC50 (the source's name)): > 100 µM
TGI (MCF7; five-dose, MCF7): 3.5 µM
activity at 10 µM (OVCAR-4; Homo sapiens, 10 μM, OVCAR-4, Ovarian Cancer, read-out: Growth percentage): 106%
GI50 (OVCAR-4; [4]): > 100 µM
IC50 (OVCAR-4; [4]): > 100 µM
CC50 (OVCAR-4; Homo sapiens, five-dose, OVCAR-4, read-out: LC50 (the source's name)): > 100 µM
TGI (OVCAR-4; five-dose, OVCAR-4): 100.0 µM
activity at 10 µM (SK-MEL-5; Homo sapiens, 10 μM, SK-MEL-5, Melanoma, read-out: Growth percentage): 50.3%
GI50 (SK-MEL-5; [5]): 21.9 µM
IC50 (SK-MEL-5; [5]): > 100 µM
CC50 (SK-MEL-5; Homo sapiens, five-dose, SK-MEL-5, read-out: LC50 (the source's name)): > 100 µM
TGI (SK-MEL-5; five-dose, SK-MEL-5): 100.0 µM
activity at 10 µM (RXF 393): -8.1%
activity at 10 µM (M14; Homo sapiens, 10 μM, M14, Melanoma, read-out: Growth percentage): 48.7%
GI50 (M14; Homo sapiens, five-dose, M14): 27.5 µM
IC50 (M14; Homo sapiens, five-dose, M14): 69.2 µM
CC50 (M14; Homo sapiens, five-dose, M14, read-out: LC50 (the source's name)): > 100 µM
TGI (M14; five-dose, M14): 100.0 µM
activity at 10 µM (SNB-75; Homo sapiens, 10 μM, SNB-75, CNS Cancer, read-out: Growth percentage): 102%
GI50 (SNB-75; [6]): 28.8 µM
IC50 (SNB-75; [6]): > 100 µM
CC50 (SNB-75; Homo sapiens, five-dose, SNB-75, read-out: LC50 (the source's name)): > 100 µM
TGI (SNB-75; five-dose, SNB-75): 77.6 µM
IC50 (RPMI-8226; Homo sapiens, RPMI-8226, five-dose): 0.3 µM
GI50 (RPMI-8226; Homo sapiens, five-dose): 0.2 µM
CC50 (RPMI-8226; [2]): 0.6 µM
TGI (RPMI-8226; five-dose): 0.3 µM
activity at 10 µM (SF-295; Homo sapiens, 10 μM, SF-295, CNS Cancer, read-out: Growth percentage): 93.3%
GI50 (SF-295; [7]): > 100 µM
IC50 (SF-295; [7]): > 100 µM
CC50 (SF-295; Homo sapiens, five-dose, SF-295, read-out: LC50 (the source's name)): > 100 µM
TGI (SF-295; five-dose, SF-295): 100.0 µM
Growth percentage (NCI-H322M; 10 μM, Non-Small-Cell Lung Cancer): 100.9%
GI50 (NCI-H322M; Homo sapiens, five-dose): > 100 µM
